Data: ChEMBL document CHEMBL6087470, “Design of Small Non-Peptidic Ligands That Alter Heteromerization between Cannabinoid CB1 and Serotonin 5HT2A Receptors” (J Med Chem, 2025)
Active and inactive are the calls of the source. The rule behind the calls is not given here.

Assays:
HEK293T = experiment: Disruption of human CB1R-nYFP-5HT2AR-cYFP heterodimerization co-transfected in HEK293T cells assessed as decrease in fluorescence signal at 4 uM incubated for 4 hrs by BiFC assay; format: cell-based
HEK-293T [1] = experiment: Upregulation of ERK1/2 phosphorylation in forskolin-treated HEK293T cells transfected with CB1R-nYFP-5HT2AR-cYFP pretreated with WIN/MDL by cAMP based HTRF assay; format: functional, cell-based; conditions: Homo sapiens
HEK-293T [2] = experiment: Effect on G-protein coupling of 5HT2AR in forskolin-treated HEK293T cells transfected with CB1R-nYFP-5HT2AR-cYFP assessed as decrease in cAMP level pretreated with WIN/MDL by HTRF assay; format: functional, cell-based; conditions: Homo sapiens
HEK-293T [3] = experiment: Upregulation of ERK1/2 phosphorylation in forskolin-treated HEK293T cells transfected with CB1R-nYFP-5HT2AR-cYFP pretreated with DOI/RIM by cAMP based HTRF assay; format: functional, cell-based; conditions: Homo sapiens
HEK-293T [4] = experiment: Upregulation of ERK1/2 phosphorylation in forskolin-treated HEK293T cells transfected with CB1R-nYFP-5HT2AR-cYFP pretreated with DOI/WIN by cAMP based HTRF assay; format: functional, cell-based; conditions: Homo sapiens
HEK-293T [5] = experiment: Effect on G-protein coupling of 5HT2AR in forskolin-treated HEK293T cells transfected with CB1R-nYFP-5HT2AR-cYFP assessed as decrease in cAMP level pretreated with DOI/RIM by HTRF assay; format: functional, cell-based; conditions: Homo sapiens
HEK-293T [6] = experiment: Effect on G-protein coupling of 5HT2AR in forskolin-treated HEK293T cells transfected with CB1R-nYFP-5HT2AR-cYFP assessed as decrease in cAMP level pretreated with DOI/WIN by HTRF assay; format: functional, cell-based; conditions: Homo sapiens
[7] = target: Cannabinoid receptor 1 (Homo sapiens) (UniProt P21554); experiment: Binding affinity to human CB1R-nYFP-CB1R-cYFP homodimerization co-transfected in HEK293T cells at 4 uM incubated for 4 hrs by BiFC assay; format: cell-based
HEK-293T [8] = experiment: Effect on G-protein coupling of 5HT2AR in forskolin-treated HEK293T cells transfected with CB1R-nYFP-5HT2AR-cYFP pretreated with WIN by cAMP based HTRF assay; format: functional, cell-based; conditions: Homo sapiens
HEK-293T [9] = experiment: Effect on ERK1/2 phosphorylation in forskolin-treated HEK293T cells transfected with CB1R-nYFP-5HT2AR-cYFP pretreated with DOI by cAMP based HTRF assay; format: functional, cell-based; conditions: Homo sapiens
HEK-293T [10] = experiment: Effect on G-protein coupling of 5HT2AR in forskolin-treated HEK293T cells transfected with CB1R-nYFP-5HT2AR-cYFP pretreated with DOI by cAMP based HTRF assay; format: functional, cell-based; conditions: Homo sapiens
[11] = target: 5-hydroxytryptamine receptor 2A (Homo sapiens) (UniProt P28223); experiment: Binding affinity to human 5HT2AR-nYFP-5HT2AR-cYFP homodimerization co-transfected in HEK293T cells at 4 uM incubated for 4 hrs by BiFC assay; format: cell-based
Sequence of 5-hydroxytryptamine receptor 2A (Homo sapiens) (P28223 whole entry): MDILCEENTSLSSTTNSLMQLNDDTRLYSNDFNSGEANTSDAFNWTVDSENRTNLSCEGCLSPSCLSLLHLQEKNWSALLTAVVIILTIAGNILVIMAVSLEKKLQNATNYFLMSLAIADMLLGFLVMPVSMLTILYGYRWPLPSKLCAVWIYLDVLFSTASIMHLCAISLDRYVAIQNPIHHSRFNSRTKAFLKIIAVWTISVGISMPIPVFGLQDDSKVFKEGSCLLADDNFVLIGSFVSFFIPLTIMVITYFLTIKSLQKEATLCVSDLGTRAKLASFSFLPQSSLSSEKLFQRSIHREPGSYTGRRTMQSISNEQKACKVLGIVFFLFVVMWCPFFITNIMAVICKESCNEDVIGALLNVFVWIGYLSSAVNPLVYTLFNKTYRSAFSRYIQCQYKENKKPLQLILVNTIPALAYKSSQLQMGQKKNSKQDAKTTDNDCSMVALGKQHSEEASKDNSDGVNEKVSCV

Sequence of Cannabinoid receptor 1 (Homo sapiens) (P21554 whole entry): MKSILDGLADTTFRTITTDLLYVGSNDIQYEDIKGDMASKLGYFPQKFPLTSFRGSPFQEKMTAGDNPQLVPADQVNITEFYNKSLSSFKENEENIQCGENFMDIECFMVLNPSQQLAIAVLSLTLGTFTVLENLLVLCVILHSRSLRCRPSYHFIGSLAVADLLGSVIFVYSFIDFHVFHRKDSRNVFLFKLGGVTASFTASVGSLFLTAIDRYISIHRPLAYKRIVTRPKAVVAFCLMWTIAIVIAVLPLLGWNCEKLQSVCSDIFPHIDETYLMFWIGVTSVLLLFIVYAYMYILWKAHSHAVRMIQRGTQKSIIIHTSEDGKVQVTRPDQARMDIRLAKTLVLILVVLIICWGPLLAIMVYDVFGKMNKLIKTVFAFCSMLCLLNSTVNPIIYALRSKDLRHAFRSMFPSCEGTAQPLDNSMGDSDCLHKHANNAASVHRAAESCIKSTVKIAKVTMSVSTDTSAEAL

Compound	Activity (HEK293T)	Activity (HEK-293T [1])	Activity (HEK-293T [2])	Activity (HEK-293T [3])	Activity (HEK-293T [4])	Activity (HEK-293T [5])	Activity (HEK-293T [6])	Activity [7]	Activity (HEK-293T [8])	Activity (HEK-293T [9])	Activity (HEK-293T [10])	Activity [11]
CC(C)COCC(NC(=O)c1cccnc1)c1ccco1 (stereo not given)	Active											
CCC(CC)C(=O)N(Cc1ccccc1)Cc1ccccc1	Active	Active	Active	Active	Active	Active	Active	inactive	No effect	No effect	No effect	Active
C=CCNC(=O)c1cn(-c2ccccc2)nc1-c1cccs1								Active				inactive
CC(C)CNC(=O)c1oc2ccccc2c1COc1ccccc1	Active	Active	Active	Active	Active	Active	Active	inactive	No effect	No effect	No effect	Active
CC(C)NC(=O)Cn1ccc2ccc(OCc3ccccc3)cc21	Active	Active	Active	Active	Active	Active	Active	inactive	No effect	No effect	No effect	Active
CC(C)COc1nc(-c2ccccc2)cc(-c2ccccc2)c1C#N	Active											
